Experimental data reported in US8217084B2, “Medicinal products incorporating bound organosulfur groups” (Allium Vitalis Incorporated, priority 2004, dated 2012).
“Also recorded” adds a separate entry of the source. Where two headings read alike, the source gives them in different places.

Key:
[1] = in vivo; cited from earlier work
[2] = after 25 g fresh garlic or 60 mg pure allicin; cited from earlier work
[3] = n-octanol/water (stated for DADS); cited from earlier work
[4] = cited from earlier work
[5] = Reaction with hydrogen peroxide, HPLC
From the text: Hydrogen peroxide (H2O2) was chosen for use as the model oxidant because it is readily available, sufficiently reactive to produce the desired effects, and sufficiently stable to be readily observed. The availability of an inexpensive real-time probe for H2O2 measurement (the ABD-3001, which could be leased by the month from Universal Sensors Inc.) was also a consideration.
The specific ability of allyl mercaptan in this regard was deemed worthy of being experimentally investigated because further experiments were planned that would rely on this ability. […] Therefore, HPLC alone was used to measure the reactants and products.
In FIG. 7, the concentrations are reported as “uM allyl” to take into account the fact that each DADS molecule contains two allyl groups, while each AllylSH molecule has only one.
Another experiment was performed at approximate body temperature (37 degrees C.) and calculated membrane AllylSH concentration.

[6] = pH dependence of reaction rate with cysteine
CYP2D6 = conditions: in 30 minutes; cited from earlier work
CYP2E1 enzyme = CYP2E1 enzyme (Rattus norvegicus, UniProt P05182); conditions: cited from earlier work
Chain of CYP2E1 enzyme (P05182 whole entry): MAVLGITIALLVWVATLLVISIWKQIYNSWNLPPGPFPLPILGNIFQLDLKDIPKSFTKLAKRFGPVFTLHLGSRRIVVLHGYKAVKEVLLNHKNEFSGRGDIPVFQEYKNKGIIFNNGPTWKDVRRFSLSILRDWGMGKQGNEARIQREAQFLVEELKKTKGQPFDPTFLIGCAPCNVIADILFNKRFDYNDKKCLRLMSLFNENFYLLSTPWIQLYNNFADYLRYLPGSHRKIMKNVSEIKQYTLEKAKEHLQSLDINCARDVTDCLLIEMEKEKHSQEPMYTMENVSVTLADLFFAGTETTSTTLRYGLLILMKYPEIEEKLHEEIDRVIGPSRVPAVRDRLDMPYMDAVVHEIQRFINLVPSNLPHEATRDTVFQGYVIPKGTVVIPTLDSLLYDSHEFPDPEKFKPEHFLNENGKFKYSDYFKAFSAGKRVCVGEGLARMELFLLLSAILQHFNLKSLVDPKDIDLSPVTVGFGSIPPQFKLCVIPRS

LDL = conditions: cited from earlier work
[7] = test system: total glutathione level of cells; conditions: cited from earlier work
[8] = cited from earlier work; remark: listed apart in the source
[9] = chemiluminescence assay; cited from earlier work
[10] = in vivo; cited from earlier work; remark: listed apart in the source
[11] = cited from earlier work; for pKa: thiol group
nematodes = conditions: cited from earlier work
E-coli O157:H7 = conditions: cited from earlier work
papain = target: T1, papain (Carica papaya, UniProt P00784); conditions: cited from earlier work
T1 sequence (P00784 134-345): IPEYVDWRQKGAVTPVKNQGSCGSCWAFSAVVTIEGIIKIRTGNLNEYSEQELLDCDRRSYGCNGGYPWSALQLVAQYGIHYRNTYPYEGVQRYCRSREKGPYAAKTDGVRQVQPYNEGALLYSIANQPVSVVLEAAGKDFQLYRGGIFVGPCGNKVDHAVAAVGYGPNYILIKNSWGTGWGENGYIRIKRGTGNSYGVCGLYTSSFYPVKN

[12] = test system: glutathione content of cells; conditions: daily dosage of 1000 mg; cited from earlier work

## C=CCSSC=CC[S+]([O-])CC=C (mixture of isomers) [ajoene]
[1]
  production of breath AMS and acetone: produce both breath AMS and acetone

## C=CCS[S+]([O-])CC=C (stereo not shown) [Allicin, DiAllylThioSulfinate]
[2]
  detectability in blood, urine, or stool: undetectable
[3]
  partition coefficient: 12.3
[4]
  Reaction in Blood Half-life: <1 min
  Reaction in Blood Product (moles): (1.6) moles
[4]; red blood cells exposed to allicin
  time to metabolize to allyl mercaptan: less than one minute

## C=CCS [AllylSH, AllylThiol]
[5]; 0.85 mM AllylSH, 10 mM H2O2, 15 minute
  formation of diallyl disulfide: essentially linear with time

## C=CCSSCC=C [DADS, Diallyl Disulfide]
[5]; 0.2 mM DADS, 0.022 mM AllylSH, 5.0 mM H2O2, 37 degrees C., 11 minutes
  allicin yield: 0.015 mM
[5]; 0.2 mM DADS, 5.0 mM H2O2, room temperature, no AllylSH
  rate of allicin formation: essentially linear with time
[6]
  dependence of reaction rate with cysteine on pH: dramatically increasing between pH 8 and 9
[1]
  production of breath AMS and acetone: produce both breath AMS and acetone
CYP2D6
  conversion of DADS to allicin: approximately 30%
CYP2E1 enzyme
  inhibition of CYP2E1: potent inhibitor
[3]
  partition coefficient: 25.0
[4]
  Reaction in Blood Half-life: 60 min
  Reaction in Blood Product (moles): (0.8) moles

## C=CCSCC=C [DAS, diallyl sulfide]
[1]
  production of breath AMS and acetone: only produces breath acetone

## C=CCSSSCC=C [DATS, Diallyl Trisulfide]
[1]
  production of breath AMS and acetone: produce both breath AMS and acetone
[4]
  Reaction in Blood Half-life: 4 min
  Reaction in Blood Product (moles): (0.8) moles

## C=CCSC[C@H](NC(C)=O)C(=O)O [N-acetyl-S-allylcysteine]
LDL
  effect on Cu2+ induced LDL oxidation: significantly reduce

## C=CCSC[C@H](N)C(=O)O [SAC, S-allylcysteine]
[1]
  production of breath AMS and acetone: produces no breath AMS or acetone
LDL
  effect on Cu2+ induced LDL oxidation: significantly reduce

## C=CCSSC[C@H](N)C(=O)O [SAMC, S-AllylMercaptoCysteine]
[7]
  total glutathione level of cells: significantly increase the total glutathione level of cells; also recorded: significant increases the total glutathione level of cells
[8]; post treatment, single dose 200 mg/kg
  protection from acetaminophen poisoning: protective
[8]; pretreatment
  protection from acetaminophen poisoning: protect mice from acetaminophen poisoning
[9]
  antioxidant or pro-oxidant activity: most effective antioxidants
[1]
  bioavailable (ingested): 100%
  production of breath AMS and acetone: produce both breath AMS and acetone
LDL
  effect on Cu2+ induced LDL oxidation: significantly reduce
[4]
  Reaction in Blood Half-life: 3 min
  Reaction in Blood Product (moles): (0.8) moles

## Cc1c(C)c2c(c(C)c1O)CC[C@@](C)(CCC[C@H](C)CCC[C@H](C)CCCC(C)C)O2 [alpha-tocopherol]
[3]
  partition coefficient: 550

## NCCS [cysteamine]
[10]
  radioprotective effect: effective

## N[C@@H](CS)C(=O)O [cysteine, Cysteine]
[10]
  radioprotective effect: effective
[11]
  pKa: approximately 8.5
[11]; listed as CySH
  pKa: 8.44

## CCCS[S+]([O-])CCC (stereo not shown) [dipropylthiosulfinate]
nematodes
  nematicidal activity: most effective compound found

## N[C@@H](CCC(=O)N[C@@H](CS)C(=O)NCC(=O)O)C(=O)O [glutathione, Glutathione]
[10]
  radioprotective effect: effective
[9]
  antioxidant or pro-oxidant activity: most effective antioxidants
[11]
  pKa of transformation to thiazoline form: 5.3
  pKa: approximately 8.5

## N[C@@H](CCS)C(=O)O [homocysteine]
[10]
  radioprotective effect: effective

## C=CCS[S+](C)[O-] (stereo not shown) [methyl allyl thiosulfinate]
E-coli O157:H7
  activity against E-coli O157:H7: effective against E-coli O157:H7

## CS[S+](C)[O-] (stereo not shown) [methyl methane thiosulfinate]
E-coli O157:H7
  activity against E-coli O157:H7: effective against E-coli O157:H7

## O=[N+]([O-])c1ccc([Se]S(=O)(=O)O)cc1 [selenosulfide, pNO2Ph-Se—SO3^−]
papain
  limit of inhibition of SH-dependent enzyme: ~50%

## O=C1O[C@H]([C@@H](O)CO)C(O)=C1O [vitamin C]
[12]
  mean percentage decrease of glutathione: 60%

## S-allylcysteine sulfoxide [alliin]
LDL
  effect on Cu2+ induced LDL oxidation: significantly reduce

## SnO2Ph-Se—S—SO3^− [S-aryl selenenylthiosulphate]
papain; by the first data point
  inactivation of the enzyme: > 90%
